Source: US12129246B1, “Hydroquinazoline derivatives for the treatment of a disease or disorder” (Novartis AG, priority 2023, dated 2024)
Read-outs that look alike come from different tables or passages of the source.

Columns and labels:
[1] = molecular target: monkey NPR1 (Macaca fascicularis, UniProt A0A7N9DBT9); test: Cellular cGMP production assay, monkey NPR1 expressing CHO-K1 cells (CisBio HTRF); type: cell-based; conditions: for Monkey NPR1 Amax (% of ANP): maximum cGMP production as percentage of the maximum cGMP produced with ANP
Chain of monkey NPR1 (A0A7N9DBT9 entry or part of it): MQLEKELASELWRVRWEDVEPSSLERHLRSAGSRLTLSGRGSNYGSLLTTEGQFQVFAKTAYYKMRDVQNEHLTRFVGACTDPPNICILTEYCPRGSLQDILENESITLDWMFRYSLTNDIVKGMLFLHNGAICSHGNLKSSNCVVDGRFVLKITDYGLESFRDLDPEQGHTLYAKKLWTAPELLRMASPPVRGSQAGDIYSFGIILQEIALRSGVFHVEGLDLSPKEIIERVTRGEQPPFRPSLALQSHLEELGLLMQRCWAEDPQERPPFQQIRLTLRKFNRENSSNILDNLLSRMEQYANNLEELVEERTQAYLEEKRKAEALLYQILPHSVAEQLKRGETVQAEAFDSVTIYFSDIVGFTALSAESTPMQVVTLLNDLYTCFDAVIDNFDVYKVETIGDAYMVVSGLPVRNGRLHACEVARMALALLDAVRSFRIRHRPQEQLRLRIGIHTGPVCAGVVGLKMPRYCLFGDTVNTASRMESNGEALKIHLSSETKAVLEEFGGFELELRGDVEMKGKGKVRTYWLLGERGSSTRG
Protocol: (§1) Cellular cGMP is a major second messenger that mediates cell activities and is synthesized by activated NPR1 triggered by binding of the natural ligand ANP. […] The assay was performed according to manufacturer's instructions with minor deviations. […] All compound stocks were diluted in PBS+0.1% BSA at 2-fold the final assay concentration. After addition of 10 μL/well of assay buffer (PBS+0.1% BSA+1 mM IBMX) and 10 μL/well of the compounds in different concentrations (12-point dose-response with 3-fold dilutions from a top concentration of 30 μM), the plate was incubated for 30 min at 37° C. to allow for cGMP production. In parallel, a standard curve using a calibrator (contained in the kit) was generated. The cells were lysed and a mix of cGMP-d2 and anti-cGMP-cryptate was added and incubated for 1 h at room temperature. The readout was performed using an Envision plate reader (PerkinElmer) with an excitation wavelength of 317 nm and an emission wavelength of 665 nm. cGMP concentration (Delta F [° %]) was calculated according to the following formulae: […]

[2] = molecular target: T1, human NPR1 (Homo sapiens, UniProt P16066); test: Cellular cGMP production assay, human NPR1 expressing CHO-K1 cells (CisBio HTRF); type: cell-based; conditions: for AC50: cGMP production, 30 min at 37° C., 12-point dose-response from 30 μM; for Human NPR1 Amax (% of ANP): maximum cGMP production as percentage of the maximum cGMP produced with ANP
T1 construct: host or cells: CHO-K1
T1 sequence (P16066 33-1061): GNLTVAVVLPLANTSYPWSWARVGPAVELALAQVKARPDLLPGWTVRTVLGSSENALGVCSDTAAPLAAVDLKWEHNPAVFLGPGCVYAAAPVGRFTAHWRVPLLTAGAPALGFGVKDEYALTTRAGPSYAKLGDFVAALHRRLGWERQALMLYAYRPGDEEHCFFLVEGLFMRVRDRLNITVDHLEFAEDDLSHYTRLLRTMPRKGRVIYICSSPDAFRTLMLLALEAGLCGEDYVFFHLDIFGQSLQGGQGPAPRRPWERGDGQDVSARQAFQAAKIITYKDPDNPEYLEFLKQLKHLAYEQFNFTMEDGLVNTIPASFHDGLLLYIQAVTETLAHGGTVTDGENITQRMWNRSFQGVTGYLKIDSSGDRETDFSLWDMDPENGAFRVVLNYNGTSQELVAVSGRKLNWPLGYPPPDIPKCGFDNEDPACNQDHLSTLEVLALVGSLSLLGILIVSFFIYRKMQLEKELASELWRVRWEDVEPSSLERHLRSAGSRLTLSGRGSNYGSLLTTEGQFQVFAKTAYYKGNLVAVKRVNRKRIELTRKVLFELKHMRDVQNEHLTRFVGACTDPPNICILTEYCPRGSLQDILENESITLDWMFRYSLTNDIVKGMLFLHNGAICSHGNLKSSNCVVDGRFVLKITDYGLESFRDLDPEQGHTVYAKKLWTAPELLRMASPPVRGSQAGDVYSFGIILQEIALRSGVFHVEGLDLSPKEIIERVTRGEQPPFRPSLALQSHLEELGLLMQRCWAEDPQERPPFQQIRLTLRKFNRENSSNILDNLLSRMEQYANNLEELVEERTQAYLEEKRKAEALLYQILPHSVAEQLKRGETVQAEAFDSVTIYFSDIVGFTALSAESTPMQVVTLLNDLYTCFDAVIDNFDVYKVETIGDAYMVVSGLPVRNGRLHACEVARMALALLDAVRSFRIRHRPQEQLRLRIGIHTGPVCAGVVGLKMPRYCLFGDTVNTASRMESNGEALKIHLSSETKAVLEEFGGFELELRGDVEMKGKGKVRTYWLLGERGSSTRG
Protocol: as §1

[3] = cGMP production, monkey NPR1 CHO-K1 cells, 30 min at 37° C., 12-point dose-response from 30 μM, read-out: Monkey NPR1 AC50

In the case of `CC[C@@H](Nc1nc2c(c(N[C@H](CN3CCC[C@H](C)C3)c3cnn(C)c3)n1)C[C@](C)(c1cccc(F)c1)CC2)[C@H]1CC[C@H](C(=O)O)CC1` (stereo in doubt) [Compound 130, (1S,4r)-4-((S)-1-(((S)-6-(3-fluorophenyl)-6-methyl-4-(((R)-1-(1-methyl-1H-pyrazol-4-yl)-2-((R)-3-methylpiperidin-1-yl)ethyl)amino)-5,6,7,8-tetrahydroquinazolin-2-yl)amino)propyl)cyclohexane-1-carboxylic acid], the AC50 [1, 3] is reported as 205 nM, the “Monkey NPR1 Amax (% of ANP)” value ([1]; monkey NPR1 CHO-K1 cells) is reported as 114.798 % of ANP and the AC50 [2] is reported as 671 nM. For the same compound, the “Human NPR1 Amax (% of ANP)” value [2] was 88.663 % of ANP.
With `CC[C@@H](N(C)c1nc2c(c(N[C@@H](CN3CCCCCC3)c3cnn(C)c3)n1)C[C@H](c1cccc(F)c1)CC2)C12CC(C(=O)O)(C1)C2` [Compound 1, 3-((R)-1-(((R)-4-(((R)-2-(azepan-1-yl)-1-(1-methyl-1H-pyrazol-4-yl)ethyl)amino)-6-(3-fluorophenyl)-5,6,7,8-tetrahydroquinazolin-2-yl)(methyl)amino)propyl)bicyclo[1.1.1]pentane-1-carboxylic acid] the AC50 [1, 3] was 10 nM, the “Monkey NPR1 Amax (% of ANP)” value ([1]; monkey NPR1 CHO-K1 cells) was 97.462 % of ANP and the AC50 [2] was 14 nM. The “Human NPR1 Amax (% of ANP)” value [2] was 93.788 % of ANP.
In the case of `CC[C@@H](Nc1nc2c(c(N[C@@H](CN3CCC[C@H](C)C3)c3cnn(C)c3)n1)C[C@](C)(c1cccc(F)c1)CC2)[C@H]1CC[C@H](C(=O)O)CC1` [Compound 2, (1R,4r)-4-((R)-1-(((R)-6-(3-fluorophenyl)-6-methyl-4-(((R)-1-(1-methyl-1H-pyrazol-4-yl)-2-((S)-3-methylpiperidin-1-yl)ethyl)amino)-5,6,7,8-tetrahydroquinazolin-2-yl)amino)propyl)cyclohexane-1-carboxylic acid], the AC50 [1, 3] is reported as 44 nM, the “Monkey NPR1 Amax (% of ANP)” value ([1]; monkey NPR1 CHO-K1 cells) is reported as 103.371 % of ANP and the AC50 [2] is reported as 42 nM. For the same compound, the “Human NPR1 Amax (% of ANP)” value [2] was 96.935 % of ANP.
`CC[C@@H](Nc1nc2c(c(N[C@@H](CN3CCCCCC3)c3cnn(C)c3)n1)C[C@H](c1cccc(F)c1)CC2)[C@H]1CC[C@H](C(=O)O)CC1` [Compound 3, (1R,4r)-4-((R)-1-(((R)-4-(((R)-2-(azepan-1-yl)-1-(1-methyl-1H-pyrazol-4-yl)ethyl)amino)-6-(3-fluorophenyl)-5,6,7,8-tetrahydroquinazolin-2-yl)amino)propyl)cyclohexane-1-carboxylic acid] was tested, and the AC50 [1, 3] was 45 nM, the “Monkey NPR1 Amax (% of ANP)” value ([1]; monkey NPR1 CHO-K1 cells) was 107.571 % of ANP and the AC50 [2] was 66 nM. The “Human NPR1 Amax (% of ANP)” value [2] was 105.403 % of ANP.
For `CC[C@@H](N(C)c1nc2c(c(N[C@H](CN3CCCCCC3)c3cnn(C)c3)n1)C[C@H](c1cccc(F)c1)CC2)C12CC(C(=O)O)(C1)C2` [Compound 4, 3-((R)-1-(((R)-4-(((S)-2-(azepan-1-yl)-1-(1-methyl-1H-pyrazol-4-yl)ethyl)amino)-6-(3-fluorophenyl)-5,6,7,8-tetrahydroquinazolin-2-yl)(methyl)amino)propyl)bicyclo[1.1.1]pentane-1-carboxylic acid], the AC50 [1, 3] was 70 nM, the “Monkey NPR1 Amax (% of ANP)” value ([1]; monkey NPR1 CHO-K1 cells) was 101.838 % of ANP and the AC50 [2] was 72 nM. For the same compound, the “Human NPR1 Amax (% of ANP)” value [2] was 99.041 % of ANP.
In the case of `CC[C@@H](Nc1nc2c(c(N[C@@H](CN3CCC[C@H](C)C3)c3cnn(C)c3)n1)C[C@](C)(c1ccc(F)cc1)CC2)[C@H]1CC[C@H](C(=O)O)CC1` [Compound 5, (1R,4r)-4-((R)-1-(((R)-6-(4-fluorophenyl)-6-methyl-4-(((R)-1-(1-methyl-1H-pyrazol-4-yl)-2-((S)-3-methylpiperidin-1-yl)ethyl)amino)-5,6,7,8-tetrahydroquinazolin-2-yl)amino)propyl)cyclohexane-1-carboxylic acid], the AC50 [1, 3] is reported as 68 nM, the “Monkey NPR1 Amax (% of ANP)” value ([1]; monkey NPR1 CHO-K1 cells) is reported as 104.503 % of ANP and the AC50 [2] is reported as 72 nM. For the same compound, the “Human NPR1 Amax (% of ANP)” value [2] was 85.741 % of ANP.
In the case of `CC[C@@H](N(C)c1nc2c(c(N[C@@H](CN3C4CCCC3CCC4)c3cnn(C)c3)n1)C[C@H](c1cccc(F)c1)CC2)C12CC(C(=O)O)(C1)C2` [Compound 6, 3-((R)-1-(((R)-4-(((R)-2-((1S,5S)-9-azabicyclo[3.3.1]nonan-9-yl)-1-(1-methyl-1H-pyrazol-4-yl)ethyl)amino)-6-(3-fluorophenyl)-5,6,7,8-tetrahydroquinazolin-2-yl)(methyl)amino)propyl)bicyclo[1.1.1]pentane-1-carboxylic acid], the AC50 [1] is reported as 58 nM, the “Monkey NPR1 Amax (% of ANP)” value ([1]; monkey NPR1 CHO-K1 cells) is reported as 98.535 % of ANP and the AC50 [2] is reported as 77 nM. The “Human NPR1 Amax (% of ANP)” value [2] was 98.462 % of ANP.
`CC[C@H]([C@H]1CC[C@H](C(=O)O)CC1)N(C)c1nc2c(c(N[C@@H](CN3CCC[C@H](C)C3)c3cnn(C)c3)n1)C[C@](C)(c1ccccc1)CC2` [Compound 7, (1R,4r)-4-((R)-1-(methyl((R)-6-methyl-4-(((R)-1-(1-methyl-1H-pyrazol-4-yl)-2-((S)-3-methylpiperidin-1-yl)ethyl)amino)-6-phenyl-5,6,7,8-tetrahydroquinazolin-2-yl)amino)propyl)cyclohexane-1-carboxylic acid] was tested, and the AC50 [1, 3] was 50 nM, the “Monkey NPR1 Amax (% of ANP)” value ([1]; monkey NPR1 CHO-K1 cells) was 102.341 % of ANP and the AC50 [2] was 80 nM. For the same compound, the “Human NPR1 Amax (% of ANP)” value [2] was 97.105 % of ANP.
For `CC[C@@H](N(C)c1nc2c(c(N[C@@H](CN3CCC[C@H](C)C3)c3cnn(C)c3)n1)C[C@](C)(c1ccccc1)CC2)C12CC(C(=O)O)(C1)C2` [Compound 8, 3-((R)-1-(methyl((R)-6-methyl-4-(((R)-1-(1-methyl-1H-pyrazol-4-yl)-2-((S)-3-methylpiperidin-1-yl)ethyl)amino)-6-phenyl-5,6,7,8-tetrahydroquinazolin-2-yl)amino)propyl)bicyclo[1.1.1]pentane-1-carboxylic acid], the AC50 [1, 3] was 77 nM, the “Monkey NPR1 Amax (% of ANP)” value ([1]; monkey NPR1 CHO-K1 cells) was 101.778 % of ANP and the AC50 [2] was 87 nM. The “Human NPR1 Amax (% of ANP)” value [2] was 92.409 % of ANP.
With `CC[C@@H](N(C)c1nc2c(c(N[C@@H](CN3CCC[C@H](C)C3)c3cnn(C)c3)n1)C[C@H](c1cccc(F)c1)CC2)C12CC(C(=O)O)(C1)C2` [Compound 9, 3-((R)-1-(((R)-6-(3-fluorophenyl)-4-(((R)-1-(1-methyl-1H-pyrazol-4-yl)-2-((S)-3-methylpiperidin-1-yl)ethyl)amino)-5,6,7,8-tetrahydroquinazolin-2-yl)(methyl)amino)propyl)bicyclo[1.1.1]pentane-1-carboxylic acid] the AC50 [1, 3] was 45 nM, the “Monkey NPR1 Amax (% of ANP)” value ([1]; monkey NPR1 CHO-K1 cells) was 95.667 % of ANP and the AC50 [2] was 88 nM. The “Human NPR1 Amax (% of ANP)” value [2] was 95.056 % of ANP.
With `CC[C@@H](Nc1nc2c(c(N[C@@H](CN3C4CCCC3CCC4)c3cnn(CC)c3)n1)C[C@@H](c1cccc(F)c1)CC2)[C@H]1CC[C@H](C(=O)O)CC1` [Compound 10, (1R,4r)-4-((R)-1-(((S)-4-(((R)-2-((1S,5S)-9-azabicyclo[3.3.1]nonan-9-yl)-1-(1-ethyl-1H-pyrazol-4-yl)ethyl)amino)-6-(3-fluorophenyl)-5,6,7,8-tetrahydroquinazolin-2-yl)amino)propyl)cyclohexane-1-carboxylic acid] the AC50 [1] was 73 nM, the “Monkey NPR1 Amax (% of ANP)” value ([1]; monkey NPR1 CHO-K1 cells) was 97.058 % of ANP and the AC50 [2] was 91 nM. The “Human NPR1 Amax (% of ANP)” value [2] was 96.065 % of ANP.
`CC[C@@H](N(C)c1nc2c(c(N[C@@H](CN3C4CCCC3CCC4)c3cnn(C)c3)n1)C[C@H](c1ccc(F)cc1)CC2)C12CC(C(=O)O)(C1)C2` [Compound 11, 3-((R)-1-(((R)-4-(((R)-2-((1S,5S)-9-azabicyclo[3.3.1]nonan-9-yl)-1-(1-methyl-1H-pyrazol-4-yl)ethyl)amino)-6-(4-fluorophenyl)-5,6,7,8-tetrahydroquinazolin-2-yl)(methyl)amino)propyl)bicyclo[1.1.1]pentane-1-carboxylic acid] was tested, and the AC50 [1] was 70 nM, the “Monkey NPR1 Amax (% of ANP)” value ([1]; monkey NPR1 CHO-K1 cells) was 113.853 % of ANP and the AC50 [2] was 94 nM. For the same compound, the “Human NPR1 Amax (% of ANP)” value [2] was 103.738 % of ANP.
